Data set [1] concerns the target T1, Cytochrome P450 1A2 (Homo sapiens, UniProt P05177).
T1 sequence (P05177 whole entry): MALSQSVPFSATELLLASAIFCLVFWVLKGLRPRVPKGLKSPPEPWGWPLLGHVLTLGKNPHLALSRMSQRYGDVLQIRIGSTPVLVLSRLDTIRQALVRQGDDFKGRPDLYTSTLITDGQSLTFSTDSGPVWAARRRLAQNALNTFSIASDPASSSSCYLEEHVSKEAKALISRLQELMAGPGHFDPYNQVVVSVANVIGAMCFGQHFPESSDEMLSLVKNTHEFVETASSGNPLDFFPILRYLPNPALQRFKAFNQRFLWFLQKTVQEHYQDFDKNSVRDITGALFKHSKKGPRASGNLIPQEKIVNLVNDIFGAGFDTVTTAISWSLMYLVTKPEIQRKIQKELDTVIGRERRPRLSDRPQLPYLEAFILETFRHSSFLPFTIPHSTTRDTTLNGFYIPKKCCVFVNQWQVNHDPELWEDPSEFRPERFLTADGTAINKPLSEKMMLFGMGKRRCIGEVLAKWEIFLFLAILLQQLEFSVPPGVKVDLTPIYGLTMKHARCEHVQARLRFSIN
Briefly: Activity of human recombinant CYP1A2 assessed as enzyme-mediated drug metabolism treated with 25 uM vorapaxar after 120 mins by LC-MS/MS analysis in presence of NADPH. Type of data set: ADME. The conditions noted are these: 2 h.

In a further data set the target is Cytochrome P450 2A6 (Homo sapiens, UniProt P11509). Briefly: Activity of human recombinant CYP2A6 assessed as enzyme-mediated drug metabolism treated with 25 uM vorapaxar after 120 mins by LC-MS/MS analysis in presence of NADPH. The format is ADME. The conditions noted are these: 2 h.
Chain of Cytochrome P450 2A6 (P11509 whole entry): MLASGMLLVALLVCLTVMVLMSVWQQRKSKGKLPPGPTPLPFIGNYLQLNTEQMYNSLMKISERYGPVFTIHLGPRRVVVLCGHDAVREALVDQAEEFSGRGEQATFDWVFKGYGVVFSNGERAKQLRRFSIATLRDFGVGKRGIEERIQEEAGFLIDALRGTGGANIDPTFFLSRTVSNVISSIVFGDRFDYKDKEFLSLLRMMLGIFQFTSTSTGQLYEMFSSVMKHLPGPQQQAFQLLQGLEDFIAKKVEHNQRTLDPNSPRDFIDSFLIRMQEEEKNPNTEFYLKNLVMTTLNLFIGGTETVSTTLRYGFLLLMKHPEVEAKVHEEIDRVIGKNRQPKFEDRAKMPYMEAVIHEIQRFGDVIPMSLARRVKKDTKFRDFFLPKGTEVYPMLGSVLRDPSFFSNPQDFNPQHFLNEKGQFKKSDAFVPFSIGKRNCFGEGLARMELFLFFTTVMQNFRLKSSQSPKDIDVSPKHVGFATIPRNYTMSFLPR
Data set [2] has as its target T2, Cytochrome P450 3A5 (Homo sapiens, UniProt P20815). Briefly: Activity of human recombinant CYP3A5 assessed as enzyme-mediated drug metabolism at 10 uM after 120 mins by LC-MS/MS analysis. Type of data set: ADME. The conditions noted are these: 2 h.
The target of another data set is Cytochrome P450 2C9 (Homo sapiens, UniProt P11712). Briefly: Activity of human recombinant CYP2C9 assessed as enzyme-mediated drug metabolism at 10 uM after 120 mins by LC-MS/MS analysis. Type of data set: ADME. The conditions noted are these: 2 h.
Chain of Cytochrome P450 2C9 (P11712 whole entry): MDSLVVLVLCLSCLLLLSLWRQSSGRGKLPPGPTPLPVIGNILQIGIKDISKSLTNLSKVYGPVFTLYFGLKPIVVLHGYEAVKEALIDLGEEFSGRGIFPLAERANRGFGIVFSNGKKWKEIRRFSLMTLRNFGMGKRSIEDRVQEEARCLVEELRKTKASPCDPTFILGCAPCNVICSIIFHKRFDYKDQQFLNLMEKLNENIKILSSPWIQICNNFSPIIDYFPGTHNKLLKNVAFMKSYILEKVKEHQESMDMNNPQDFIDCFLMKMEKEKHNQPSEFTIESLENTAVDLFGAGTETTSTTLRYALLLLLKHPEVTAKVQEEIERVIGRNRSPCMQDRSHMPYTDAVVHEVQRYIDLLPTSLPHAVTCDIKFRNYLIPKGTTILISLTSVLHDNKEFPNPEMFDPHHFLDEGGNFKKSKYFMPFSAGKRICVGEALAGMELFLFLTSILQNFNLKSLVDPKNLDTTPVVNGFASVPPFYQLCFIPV
The next data set has as its target Cytochrome P450 3A4 (Homo sapiens, UniProt P08684). Briefly: Activity of human recombinant CYP3A4 assessed as enzyme-mediated drug metabolism at 10 uM after 120 mins by LC-MS/MS analysis. The format is ADME. Particulars: 2 h.
Data set [3] concerns the target T2, Cytochrome P450 3A5. Briefly: Activity of human recombinant CYP3A5 assessed as enzyme-mediated (3R,3aS,4S,4aR,7R,8aR,9aR)-7-amino-4-((E)-2-(5-(3-fluorophenyl)pyridin-2-yl)vinyl)-3-methyldecahydronaphtho[2,3-c]furan-1(3H)-one formation at 25 uM after 120 mins by LC-MS/MS analysis in presence of NADPH. Type of data set: ADME. Particulars: 2 h.
A further data set addresses Cytochrome P450 2C19 (Homo sapiens, UniProt P33261). The experiment in a line: Activity of human recombinant CYP2C19 assessed as enzyme-mediated (3R,3aS,4S,4aR,7R,8aR,9aR)-7-amino-4-((E)-2-(5-(3-fluorophenyl)pyridin-2-yl)vinyl)-3-methyldecahydronaphtho[2,3-c]furan-1(3H)-one formation at 25 uM after 120 mins by LC-MS/MS analysis in presence of NADPH. The format is ADME. The conditions noted are these: 2 h.

The test system of data set [4] is Liver microsome. Briefly: Drug metabolism in human liver microsomes assessed as (3R,3aS,4S,4aR,7R,8aR,9aR)-7-amino-4-((E)-2-(5-(3-fluorophenyl)pyridin-2-yl)vinyl)-3-methyldecahydronaphtho[2,3-c]furan-1(3H)-one formation after 120 mins by LC-MS/MS analysis. The format is ADME. The conditions noted are these: 2 h. For orientation: Microsomes from liver hold many membrane-bound enzymes, among them those of drug oxidation.

A further data set addresses T3, Cytochrome P450 4F3 (Homo sapiens, UniProt Q08477).
T3 sequence (Q08477 whole entry): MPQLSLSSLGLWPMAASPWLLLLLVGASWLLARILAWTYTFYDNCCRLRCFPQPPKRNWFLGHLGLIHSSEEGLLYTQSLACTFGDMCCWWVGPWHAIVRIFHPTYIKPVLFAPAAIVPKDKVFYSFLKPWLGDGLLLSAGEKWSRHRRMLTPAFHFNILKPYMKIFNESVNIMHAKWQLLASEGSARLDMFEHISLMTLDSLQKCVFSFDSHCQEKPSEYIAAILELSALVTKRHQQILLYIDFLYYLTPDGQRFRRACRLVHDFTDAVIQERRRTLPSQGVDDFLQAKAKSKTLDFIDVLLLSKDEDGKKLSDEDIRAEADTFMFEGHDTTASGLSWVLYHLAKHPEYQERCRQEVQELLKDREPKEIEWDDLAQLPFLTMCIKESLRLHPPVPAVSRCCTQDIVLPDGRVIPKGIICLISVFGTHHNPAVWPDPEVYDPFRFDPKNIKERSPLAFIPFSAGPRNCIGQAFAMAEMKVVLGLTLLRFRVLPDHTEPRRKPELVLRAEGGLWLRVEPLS
The experiment in a line: Activity of human recombinant CYP4F3B assessed as enzyme-mediated 2-hydroxyethyl (1R,3aR,4aR,6R,8aR,9S,9aS)-9-((E)-2-(5-(3-fluorophenyl)pyridin-2-yl)vinyl)-1-methyl-3-oxododecahydronaphtho[2,3-c]furan-6-ylcarbamate formation at 25 uM after 120 mins by LC-MS/MS analysis in presence of NADPH. Type of data set: ADME. Particulars: 2 h.

The target of data set [5] is T1, Cytochrome P450 1A2. The experiment in a line: Activity of human recombinant CYP1A2 assessed as enzyme-mediated 2-hydroxyethyl (1R,3aR,4aR,6R,8aR,9S,9aS)-9-((E)-2-(5-(3-fluorophenyl)pyridin-2-yl)vinyl)-1-methyl-3-oxododecahydronaphtho[2,3-c]furan-6-ylcarbamate formation at 25 uM after 120 mins by LC-MS/MS analysis in presence of NADPH. Type of data set: ADME. The conditions noted are these: 2 h.

Data set [6] has as its system Liver microsome. Briefly: Drug metabolism in human liver microsomes assessed as (3R,3aS,4S,4aR,7R,8aR,9aR)-7-amino-4-((E)-2-(5-(3-fluorophenyl)pyridin-2-yl)vinyl)-3-methyldecahydronaphtho[2,3-c]furan-1(3H)-one formation at 10 to 25 uM after 120 mins by LC-MS/MS analysis in presence of tranylcypromine. Type of data set: ADME. Particulars: 2 h.
Data set [7] relates to Liver microsome. The experiment in a line: Drug metabolism in human liver microsomes assessed as 2-hydroxyethyl (1R,3aR,4aR,6R,8aR,9S,9aS)-9-((E)-2-(5-(3-fluorophenyl)pyridin-2-yl)vinyl)-1-methyl-3-oxododecahydronaphtho[2,3-c]furan-6-ylcarbamate formation at 25 uM after 120 mins by LC-MS/MS analysis in presence of ketoconazole. The format is ADME. The conditions noted are these: 2 h.

Data set [8] is described as follows: Drug metabolism in human liver S9 fraction assessed as compound remaining at 10 uM after 120 mins by LC-MS/MS analysis in presence of NADPH. The format is ADME, subcellular. Particulars: read-out: Compound recovery.
The subject of data set [9] is Liver microsome. The experiment in a line: Drug metabolism in human liver microsomes assessed as 2-hydroxyethyl (1R,3aR,4aR,6R,8aR,9S,9aS)-9-((E)-2-(5-(3-fluorophenyl)pyridin-2-yl)vinyl)-1-methyl-3-oxododecahydronaphtho[2,3-c]furan-6-ylcarbamate formation at 25 uM after 120 mins by LC-MS/MS analysis. The format is ADME. Particulars: 2 h.

Each structure is given as a SMILES string.

This note sets out measurements from ChEMBL document CHEMBL3526033, “Identification of human liver cytochrome P450 enzymes involved in the metabolism of SCH 530348 (Vorapaxar), a potent oral thrombin protease-activated receptor 1 antagonist” (Drug Metab Dispos, 2011).

As usually defined, the Km is the concentration of substrate that gives half-maximal velocity.

T2 sequence (P20815 whole entry): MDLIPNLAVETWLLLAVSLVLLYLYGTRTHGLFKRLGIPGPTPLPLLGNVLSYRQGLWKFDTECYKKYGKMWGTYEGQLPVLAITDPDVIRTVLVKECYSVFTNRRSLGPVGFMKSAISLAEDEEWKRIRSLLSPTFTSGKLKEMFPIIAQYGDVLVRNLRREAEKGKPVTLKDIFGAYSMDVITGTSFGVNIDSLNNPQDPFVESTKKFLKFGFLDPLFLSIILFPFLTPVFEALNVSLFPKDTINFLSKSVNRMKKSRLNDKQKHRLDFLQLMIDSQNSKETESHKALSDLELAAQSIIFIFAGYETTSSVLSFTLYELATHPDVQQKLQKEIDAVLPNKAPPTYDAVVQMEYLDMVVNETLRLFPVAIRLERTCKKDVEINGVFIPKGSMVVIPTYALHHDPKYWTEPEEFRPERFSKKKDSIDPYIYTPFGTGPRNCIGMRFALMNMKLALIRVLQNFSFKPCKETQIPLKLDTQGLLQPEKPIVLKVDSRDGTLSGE
Chain of Cytochrome P450 2C19 (P33261 whole entry): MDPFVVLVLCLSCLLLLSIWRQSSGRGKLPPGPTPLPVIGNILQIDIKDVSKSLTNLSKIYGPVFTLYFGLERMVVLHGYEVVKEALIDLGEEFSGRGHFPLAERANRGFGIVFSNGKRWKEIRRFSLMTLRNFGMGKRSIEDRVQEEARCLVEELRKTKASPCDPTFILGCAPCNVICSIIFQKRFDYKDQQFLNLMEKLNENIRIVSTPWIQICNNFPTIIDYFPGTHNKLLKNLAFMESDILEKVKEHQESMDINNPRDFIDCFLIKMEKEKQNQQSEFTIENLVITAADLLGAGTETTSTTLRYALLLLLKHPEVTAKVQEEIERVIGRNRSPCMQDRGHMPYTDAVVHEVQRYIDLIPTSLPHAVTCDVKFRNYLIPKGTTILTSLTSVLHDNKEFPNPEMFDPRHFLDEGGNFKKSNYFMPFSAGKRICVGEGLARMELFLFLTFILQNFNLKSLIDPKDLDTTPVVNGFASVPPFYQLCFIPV
Chain of Cytochrome P450 3A4 (P08684 whole entry): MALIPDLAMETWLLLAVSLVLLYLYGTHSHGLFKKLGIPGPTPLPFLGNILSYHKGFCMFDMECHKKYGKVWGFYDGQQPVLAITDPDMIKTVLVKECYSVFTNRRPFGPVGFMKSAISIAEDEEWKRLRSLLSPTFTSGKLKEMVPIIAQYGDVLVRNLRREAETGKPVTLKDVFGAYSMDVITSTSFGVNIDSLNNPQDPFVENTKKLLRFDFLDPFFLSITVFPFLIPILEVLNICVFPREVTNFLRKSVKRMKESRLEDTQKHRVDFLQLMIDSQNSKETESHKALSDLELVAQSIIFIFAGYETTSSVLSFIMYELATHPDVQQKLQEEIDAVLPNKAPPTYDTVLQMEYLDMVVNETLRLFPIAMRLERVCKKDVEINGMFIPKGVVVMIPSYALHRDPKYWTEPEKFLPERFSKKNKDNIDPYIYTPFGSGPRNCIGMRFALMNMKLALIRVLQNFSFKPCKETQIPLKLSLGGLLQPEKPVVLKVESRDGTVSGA

Regarding `C[C@H]1OC(=O)[C@@H]2C[C@@H]3C[C@H](NC(=O)OCCO)CC[C@H]3[C@H](/C=C/c3ccc(-c4cccc(F)c4)cn3)[C@H]12`, the Drug metabolism entry at Cytochrome P450 1A2 [1] and on Cytochrome P450 2A6 was “metabolite_detected” in each case.

With `CCOC(=O)N[C@@H]1CC[C@@H]2[C@@H](C1)C[C@H]1C(=O)O[C@H](C)[C@H]1[C@H]2/C=[14CH]/c1ccc(-c2cccc(F)c2)cn1`, the Drug metabolism entry at Cytochrome P450 3A5 [2] is “metabolite_not_detected”; at Cytochrome P450 2C9, “metabolite_not_detected”; at Cytochrome P450 3A4, “metabolite_not_detected”; at Cytochrome P450 3A5 [3], “metabolite_detected”; at Cytochrome P450 2C19, “metabolite_detected”; on Cytochrome P450 4F3, “metabolite_detected”. Also, at Cytochrome P450 1A2 [5], the Drug metabolism entry is given as “metabolite_detected”. The Km in the data set with Liver microsome [4] was determined as 23.5 µM.

As for `CCOC(=O)N[C@@H]1CC[C@@H]2[C@@H](C1)C[C@H]1C(=O)O[C@H](C)[C@H]1[C@H]2/C=C/c1ccc(-c2cccc(F)c2)cn1` [VORAPAXAR], the Drug metabolism entry in the data set with Liver microsome [6], in the data set with Liver microsome [7] and in the data set with Liver microsome [9] was “metabolite_not_detected” each time. Moreover, in [8], the remaining at 2 h, 10 µM was determined as 95.7%.
